Source: patent publication US20240199618A1, “NOVEL N-ACYL-[3-SUBSTITUTED]-[8-SUBSTITUTED]-5,6-DIHYDRO-[1,2,4]TRIAZOLO[4,3-a]PYRAZINES AS SELECTIVE NK-3 RECEPTOR ANTAGONISTS, PHARMACEUTICAL COMPOSITION, METHODS FOR USE IN NK-3 RECEPTOR-MEDIATED DISORDERS” (Ogeda SA, priority 2013, published 2024)
Like-named read-outs stand apart in the source and are kept apart here.

Key:
human NK-3 receptor [1] = molecular target: T1, human NK-3 receptor (Homo sapiens (Human), UniProt P29371); test: Aequorin functional assay with human NK-3 receptor (antagonist testing vs NKA); assay type: cell-based; details: CHO cells, NKA at EC80 (3 nM); read-out: Functional assay: Aequorin assay with human NK-3 receptor hNK-3-AEQ (antagonist IC50)
T1 sequence (P29371 whole entry): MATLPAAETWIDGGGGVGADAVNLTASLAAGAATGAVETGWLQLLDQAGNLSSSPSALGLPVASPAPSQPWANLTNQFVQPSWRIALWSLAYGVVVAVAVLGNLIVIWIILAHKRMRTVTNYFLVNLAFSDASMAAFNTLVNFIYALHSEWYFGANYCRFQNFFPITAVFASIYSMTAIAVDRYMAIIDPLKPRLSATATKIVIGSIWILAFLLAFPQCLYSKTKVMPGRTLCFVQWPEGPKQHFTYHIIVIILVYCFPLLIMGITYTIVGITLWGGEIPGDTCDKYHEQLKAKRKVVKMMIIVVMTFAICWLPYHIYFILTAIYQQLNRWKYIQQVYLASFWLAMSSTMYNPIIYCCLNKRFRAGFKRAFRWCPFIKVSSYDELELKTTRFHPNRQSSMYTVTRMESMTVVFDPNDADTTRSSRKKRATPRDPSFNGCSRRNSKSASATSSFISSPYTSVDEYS
How it was run: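 CHO cells co-expressing human NK-3 receptor and apoaequorin were pre-incubated 3 min with compound, then challenged with NKA at EC80 (3 nM). Coelenterazine-dependent luminescence was integrated over 90 s, and antagonism was derived from concentration-dependent inhibition of the calcium response.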

human NK-3 receptor [2] = molecular target: T1, human NK-3 receptor; test: 3H-SB222200 binding competition assay with human NK-3 receptor
How it was run: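 Membranes from CHO cells stably expressing the receptor were incubated with 5 nM 3H-SB222200 and varying compound concentrations in HEPES 25 mM/NaCl 0.1 M/CaCl2 1 mM/MgCl2 5 mM/BSA 0.5%/saponin 10 μg/ml, pH 7.4. Bound radioligand was quantified as membrane-associated radioactivity after filtration.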

plasma protein = test: Determination of plasma protein binding (equilibrium dialysis, RED); assay type: in vitro ADME; details: 4 hours at 37° C.
plasma estradiol = test: Estradiol circulating level in female rats; assay type: in vivo, rat; details: 10 mg/kg b.i.d. oral, 10 days, FIG. 3
Protocol: Effect of compounds of the invention on Estradiol circulating level in female rats The aim of this study was to evaluate the effect of compounds of the invention on plasma estradiol levels following oral administration at 10 mg/kg (b.i.d.) for a period of 10 days in female rats.
Briefly the experimental methods used for this study were as follows: Two groups of adult, female rats (Sprague-Dawley, ˜320 g) were treated in-phase with their individual estrous cycles. Thus, treatment was started in the proestrus phase (coincident with peak estradiol levels, as shown on Day 1 in FIG. 3) and rats were dosed twice daily (˜9 h30 and 17 h30) by oral administration either with a compound of the invention at 10 mg/kg or with the vehicle for the control group. Compounds of the invention were prepared in a dose formulation of pyrogen-free water with 0.5% methylcellulose. Estradiol levels were determined for all groups by ELISA performed on plasma samples derived from blood collections taken at 30 minutes before the daily, 9 h30 test article administration on all days presented in FIG. 3.

[3] = tested on: body temperature (pyrogenic response to feeding); test: Thermoregulation in OVX ewes; assay type: in vivo, ewe; details: 1 mg/kg intravenous bolus
From the text: In Vivo Assay in OVX Ewes-Activity in Thermoregulation Experimental Methods: Evaluation of Thermoregulation in OVX Ewe […] After 4 months recovery, animals were acclimatised to housing in single pens for a period of 7 days with ad libitum access to water and […] lucerne hay. One day prior to experimentation, the animals received a jugular vein cannula ([…], Tuta Laboratories, Lane Cove, Australia). The cannulo were kept patent with heparinised saline. On the day of the experiment, compound n^o 5 of the present invention was formulated in physiological saline with 9% 2-hydroxypropyl-β-cyclodextrin at a concentration of 2 mg/mL. […] Animals were fed at 12 h00. Rectal temperatures were monitored with a probe at hourly intervals throughout the experiment, starting at 7 h40 and concluding at 15 h40.

In the case of `Cc1nsc(-c2nnc3n2CCN(C(=O)c2ccc(F)cc2)[C@@H]3C)n1` [Compound 5, (R)-(4-fluorophenyl)(8-methyl-3-(3-methyl-1,2,4-thiadiazol-5-yl)-5,6-dihydro-[1,2,4]triazolo[4,3-a]pyrazin-7(8H)-yl)methanone], the IC50 (human NK-3 receptor [1]) is reported as 18 nM, the Ki (human NK-3 receptor [2]; Table 2, 5 nM 3H-SB222200, CHO membranes, read-out: Competitive binding assay with human NK-3 receptor hNK-3 (Ki)) is reported as 23 nM and the Ki (human NK-3 receptor [2]; Table 3 (selectivity table), read-out: hNK-3 (Ki)) is reported as 23 nM. For the same molecule, the “Exposure (% rPPB), bound drug fraction to plasma protein” value (plasma protein) was 22%, the estradiol levels (plasma estradiol) was “significantly decreased” and the “pyrogenic response to feeding” value [3] was “not observed”. The “body temperature at the 12 h40 time point” value ([3]; after feeding at 12 h00, mean±SEM) was 38.9±0.2 °C.
